How the values were obtained:
ABUTH (Velvetleaf) = assay: Postemergence herbicidal evaluation; assay type: in vivo, Abutilon theophrasti
Protocol: (§1) In the tests, seedling plants are grown in jiffy flats for about two weeks. The test compounds are dispersed in 50/50 acetone/water mixtures containing 0.5% TWEEN®20, a polyoxyethylene sorbitan monolaurate surfactant of Atlas Chemical Industries, in sufficient quantities to provide the equivalent of about 0.0156 kg to 0.500 kg per hectare of active compound when applied to the plants through a spray nozzle operating at 40 psi for a predetermined time. After spraying, the plants are placed on greenhouse benches and are cared for in accordance with conventional greenhouse procedures. From four to five weeks after treatment, the seedling plants are examined and rated according to the rating system set forth below. Where more than one test is involved for a given compound, the data are averaged.
(§2) Plant species employed in these evaluations are reported by header abbreviation, common name and scientific name.
(§3) Results of herbicide evaluation are expressed on a rating scale (0-9). The scale is based upon a visual observation of plant stand, vigor, malformation, size, chlorosis and overall plant appearance as compared with a control.

AMBEL (Ragweed, Common) = assay: Postemergence herbicidal evaluation; assay type: in vivo, Ambrosia artemisifolia
In short: (§4)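 Young plants, roughly two weeks from seeding, receive the active ingredient as a sprayed dispersion (acetone/water 50/50, 0.5% TWEEN 20) at 40 psi. Doses span about 0.0156 to 0.500 kg/ha. A visual score from 0 to 9 compares treated with control plants four to five weeks on.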

CASOB (Sicklepod) = assay: Postemergence herbicidal evaluation; assay type: in vivo, Cassia obtusifolia
Protocol: as §1, §2, §3

[1] = system: CHEAL (Lambsquarters, Common); assay: Postemergence herbicidal evaluation; assay type: in vivo, Chenopodium album
In short: as §4

GALAP (Galium) = assay: Postemergence herbicidal evaluation; assay type: in vivo, Galium aparine
Protocol: as §1, §2, §3

[2] = system: IPOHE (Morningglory, Ivyleaf); assay: Postemergence herbicidal evaluation; assay type: in vivo, Ipomoea hederacea
In short: as §4

ECHCG (Barnyardgrass) = assay: Postemergence herbicidal evaluation; assay type: in vivo, Echinochloa crus-galli
Protocol: as §1, §2, §3

SETVI (Foxtail, Green) = assay: Postemergence herbicidal evaluation; assay type: in vivo, Setaria viridis
Protocol: as §1, §2, §3

[3] = system: GLXMAW (Soybean, Williams); assay: Postemergence herbicidal evaluation; assay type: in vivo, Glycine max, (L.) Merr. cv Williams
In short: as §4

ORYSAT (Rice, Tebonnet) = assay: Postemergence herbicidal evaluation; assay type: in vivo, Oryza sativa, (L.) Tebonnet
In short: as §4

[4] = system: TRZAWR (Wheat, Winter, cv Riband); assay: Postemergence herbicidal evaluation; assay type: in vivo, Triticum aestivum
In short: as §4

ZEAMX (Corn, Field) = assay: Postemergence herbicidal evaluation; assay type: in vivo, Zea mays
In short: as §4

[5] = system: ECHORC (Watergrass (Calif.)); assay: Preemergence weed control under flooded paddy conditions; assay type: in vivo, Echinochloa oryzoides; settings: rated 3-4 weeks after treatment
Protocol: as §3
(§5) Preemergence herbicidal activity under flooded paddy conditions is determined as follows: plant seeds or propagating organs are planted in the top 0.5 cm of silt loam soil in 32 oz. plastic containers with a diameter of 10.5 cm and no drainage holes. Water is added to these containers and maintained at 1.5 to 3 cm above the soil surface for the duration of the experiment. The test compounds are applied as aqueous/acetone mixtures 50/50 v/v pipetted directly into the flood water to give the equivalent of about 0.0313 to 0.500 kg/ha of active ingredient. The treated containers are placed on greenhouse benches and cared for in accordance with conventional greenhouse procedures. Three to four weeks after treatment, the test is terminated and each container is examined and herbicidal effect rated according to the rating system provided in Example 37. The compounds evaluated are reported by compound number given in Example 37.
(§6) Plant species employed in this example are reported by header abbreviation, common name and scientific name.

CYPIR (Rice Flatsedge) [6] = assay: as above; assay type: in vivo, Cyperus iria; settings: rated 3-4 weeks after treatment
Protocol: as §3, §5, §6

CYPSE (Flatsedge) [7] = assay: as above; assay type: in vivo, Cyperus serotinus; settings: rated 3-4 weeks after treatment
Protocol: as §3, §5, §6

MOOVA (Monochoria) [8] = assay: as above; assay type: in vivo, Monochoria vaginalis; settings: rated 3-4 weeks after treatment
Protocol: as §3, §5, §6

[9] = system: SAGPY (Arrowhead (Pygmaea)); assay: as above; assay type: in vivo, Sagittaria pygmaea; settings: rated 3-4 weeks after treatment
In short: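 Visual injury scored 0-9 against control three to four weeks post-treatment, greenhouse-grown. Application: acetone/water (50/50) solutions dosed directly into flood water (1.5-3 cm over silt loam, planted top 0.5 cm), roughly 0.0313 to 0.500 kg/ha active ingredient.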

[10] = system: ECHORC (Watergrass (Calif.)); assay: Postemergence weed control under flooded paddy conditions; assay type: in vivo, Echinochloa oryzoides; settings: postemergence weeds, 3-4 weeks after treatment
From the text: as §3
(§7) Plastic containers containing weeds which are 3 to 5 cm tall and rice seedlings at the 1.5 to 2.5 leaf stage are flooded with water. The water is maintained at 1.5 to 3 cm above the soil surface for the duration of the experiment. Test compounds are applied as aqueous/ acetone mixtures 50/50 v/v directly into the flood water to provide the equivalent of about 0.0313 to 0.500 kg/ha of active ingredient. The treated containers are placed on greenhouse benches and cared for in accordance with conventional greenhouse procedures. Three to four weeks after treatment, the test is terminated and each container is examined and herbicidal effect rated according to the rating system provided in Example 37. The compounds evaluated are reported by compound number given in Example 37.

CYPIR (Rice Flatsedge) [11] = assay: as above; assay type: in vivo, Cyperus iria; settings: postemergence weeds, 3-4 weeks after treatment
From the text: as §3, §7

CYPSE (Flatsedge) [12] = assay: as above; assay type: in vivo, Cyperus serotinus; settings: postemergence weeds, 3-4 weeks after treatment
From the text: as §3, §7

MOOVA (Monochoria) [13] = assay: as above; assay type: in vivo, Monochoria vaginalis; settings: postemergence weeds, 3-4 weeks after treatment
From the text: as §3, §7

[14] = system: SAGPY (Arrowhead (Pygmaea)); assay: as above; assay type: in vivo, Sagittaria pygmaea; settings: postemergence weeds, 3-4 weeks after treatment
From the text: as §3, §7

For `CCOC(=O)CN1C(=O)C(CC(=O)NC)SC1=Nc1cc(-n2c(=O)cc(C(F)(F)F)n(C)c2=O)c(F)cc1Cl` (stereo not shown) [Compound 57, Ethyl 2-{{2-chloro-5-[3,6-dihydro-3-methyl-2,6-dioxo-4-(trifluoromethyl)-1(2H)-pyrimidinyl]-4-fluorophenyl}imino}-5-[(methylcarbamoyl)methyl]-4-oxo-3-thiazolidineacetate], the “Postemergence herbicidal rating ABUTH” value (ABUTH (Velvetleaf); Rate 0.0158 kg/ha) was 9.0, the “Postemergence herbicidal rating ABUTH” value (ABUTH (Velvetleaf); Rate 0.0315 kg/ha) was 9.0 and the “Postemergence herbicidal rating ABUTH” value (ABUTH (Velvetleaf); Rate 0.0630 kg/ha) was 9.0. The “Postemergence herbicidal rating AMBEL” value (AMBEL (Ragweed, Common); Rate 0.0158 kg/ha) was 9.0, the “Postemergence herbicidal rating AMBEL” value (AMBEL (Ragweed, Common); Rate 0.0315 kg/ha) was 9.0 and the “Postemergence herbicidal rating AMBEL” value (AMBEL (Ragweed, Common); Rate 0.0630 kg/ha) was 9.0. The “Postemergence herbicidal rating CASOB” value (CASOB (Sicklepod); Rate 0.0158 kg/ha) was 2.0, the “Postemergence herbicidal rating CASOB” value (CASOB (Sicklepod); Rate 0.0315 kg/ha) was 2.0 and the “Postemergence herbicidal rating CASOB” value (CASOB (Sicklepod); Rate 0.0630 kg/ha) was 6.0. The “Postemergence herbicidal rating CHEAL” value ([1]; Rate 0.0158 kg/ha) was 9.0, the “Postemergence herbicidal rating CHEAL” value ([1]; Rate 0.0315 kg/ha) was 9.0 and the “Postemergence herbicidal rating CHEAL” value ([1]; Rate 0.0630 kg/ha) was 9.0. For the same compound, the “Postemergence herbicidal rating GALAP” value (GALAP (Galium); Rate 0.0158 kg/ha) was 4.0, the “Postemergence herbicidal rating GALAP” value (GALAP (Galium); Rate 0.0315 kg/ha) was 6.0 and the “Postemergence herbicidal rating GALAP” value (GALAP (Galium); Rate 0.0630 kg/ha) was 5.0. For the same compound, the “Postemergence herbicidal rating IPOHE” value ([2]; Rate 0.0158 kg/ha) was 9.0, the “Postemergence herbicidal rating IPOHE” value ([2]; Rate 0.0315 kg/ha) was 9.0 and the “Postemergence herbicidal rating IPOHE” value ([2]; Rate 0.0630 kg/ha) was 9.0. The “Postemergence herbicidal rating ECHCG” value (ECHCG (Barnyardgrass); Rate 0.0158 kg/ha) was 1.0, the “Postemergence herbicidal rating ECHCG” value (ECHCG (Barnyardgrass); Rate 0.0315 kg/ha) was 1.0 and the “Postemergence herbicidal rating ECHCG” value (ECHCG (Barnyardgrass); Rate 0.0630 kg/ha) was 1.0. The “Postemergence herbicidal rating SETVI” value (SETVI (Foxtail, Green); Rate 0.0158 kg/ha) was 2.0, the “Postemergence herbicidal rating SETVI” value (SETVI (Foxtail, Green); Rate 0.0315 kg/ha) was 4.0 and the “Postemergence herbicidal rating SETVI” value (SETVI (Foxtail, Green); Rate 0.0630 kg/ha) was 5.0. For the same compound, the “Postemergence herbicidal rating GLXMAW” value ([3]; Rate 0.0158 kg/ha) was 6.5, the “Postemergence herbicidal rating GLXMAW” value ([3]; Rate 0.0315 kg/ha) was 6.5 and the “Postemergence herbicidal rating GLXMAW” value ([3]; Rate 0.0630 kg/ha) was 9.0. For the same compound, the “Postemergence herbicidal rating ORYSAT” value (ORYSAT (Rice, Tebonnet); Rate 0.0158 kg/ha) was 1.5, the “Postemergence herbicidal rating ORYSAT” value (ORYSAT (Rice, Tebonnet); Rate 0.0315 kg/ha) was 2.5 and the “Postemergence herbicidal rating ORYSAT” value (ORYSAT (Rice, Tebonnet); Rate 0.0630 kg/ha) was 3.0. The “Postemergence herbicidal rating TRZAWR” value ([4]; Rate 0.0158 kg/ha) was 3.0, the “Postemergence herbicidal rating TRZAWR” value ([4]; Rate 0.0315 kg/ha) was 4.0 and the “Postemergence herbicidal rating TRZAWR” value ([4]; Rate 0.0630 kg/ha) was 4.0. For the same compound, the “Postemergence herbicidal rating ZEAMX” value (ZEAMX (Corn, Field); Rate 0.0158 kg/ha) was 4.5, the “Postemergence herbicidal rating ZEAMX” value (ZEAMX (Corn, Field); Rate 0.0315 kg/ha) was 5.0 and the “Postemergence herbicidal rating ZEAMX” value (ZEAMX (Corn, Field); Rate 0.0630 kg/ha) was 5.0. The “Herbicidal rating ECHORC” value ([5]; 0.0313 kg/ha) was 0.0, the “Herbicidal rating ECHORC” value ([5]; 0.0625 kg/ha) was 2.0 and the “Herbicidal rating ECHORC” value ([5]; 0.1250 kg/ha) was 2.0. For the same compound, the “Herbicidal rating ECHORC” value ([5]; 0.2500 kg/ha) was 5.0, the “Herbicidal rating CYPIR” value (CYPIR (Rice Flatsedge) [6]; 0.0313 kg/ha) was 0.0 and the “Herbicidal rating CYPIR” value (CYPIR (Rice Flatsedge) [6]; 0.0625 kg/ha) was 9.0. The “Herbicidal rating CYPIR” value (CYPIR (Rice Flatsedge) [6]; 0.1250 kg/ha) was 9.0, the “Herbicidal rating CYPIR” value (CYPIR (Rice Flatsedge) [6]; 0.2500 kg/ha) was 9.0 and the “Herbicidal rating CYPSE” value (CYPSE (Flatsedge) [7]; 0.0313 kg/ha) was 0.0. The “Herbicidal rating CYPSE” value (CYPSE (Flatsedge) [7]; 0.0625 kg/ha) was 0.0, the “Herbicidal rating CYPSE” value (CYPSE (Flatsedge) [7]; 0.1250 kg/ha) was 0.0 and the “Herbicidal rating CYPSE” value (CYPSE (Flatsedge) [7]; 0.2500 kg/ha) was 3.0. For the same compound, the “Herbicidal rating MOOVA” value (MOOVA (Monochoria) [8]; 0.0313 kg/ha) was 9.0, the “Herbicidal rating MOOVA” value (MOOVA (Monochoria) [8]; 0.0625 kg/ha) was 9.0 and the “Herbicidal rating MOOVA” value (MOOVA (Monochoria) [8]; 0.1250 kg/ha) was 9.0. For the same compound, the “Herbicidal rating MOOVA” value (MOOVA (Monochoria) [8]; 0.2500 kg/ha) was 9.0, the “Herbicidal rating SAGPY” value ([9]; 0.0313 kg/ha) was 0.0 and the “Herbicidal rating SAGPY” value ([9]; 0.0625 kg/ha) was 0.0. For the same compound, the “Herbicidal rating SAGPY” value ([9]; 0.1250 kg/ha) was 0.0, the “Herbicidal rating SAGPY” value ([9]; 0.2500 kg/ha) was 6.0 and the “Herbicidal rating ECHORC” value ([10]; rate 0.0313 kg/ha) was 0.0. For the same compound, the “Herbicidal rating ECHORC” value ([10]; rate 0.0625 kg/ha) was 2.0, the “Herbicidal rating ECHORC” value ([10]; rate 0.1250 kg/ha) was 2.0 and the “Herbicidal rating ECHORC” value ([10]; rate 0.2500 kg/ha) was 5.0. The “Herbicidal rating CYPIR” value (CYPIR (Rice Flatsedge) [11]; rate 0.0313 kg/ha) was 0.0, the “Herbicidal rating CYPIR” value (CYPIR (Rice Flatsedge) [11]; rate 0.0625 kg/ha) was 9.0 and the “Herbicidal rating CYPIR” value (CYPIR (Rice Flatsedge) [11]; rate 0.1250 kg/ha) was 9.0. For the same compound, the “Herbicidal rating CYPIR” value (CYPIR (Rice Flatsedge) [11]; rate 0.2500 kg/ha) was 9.0, the “Herbicidal rating CYPSE” value (CYPSE (Flatsedge) [12]; rate 0.0313 kg/ha) was 0.0 and the “Herbicidal rating CYPSE” value (CYPSE (Flatsedge) [12]; rate 0.0625 kg/ha) was 0.0. For the same compound, the “Herbicidal rating CYPSE” value (CYPSE (Flatsedge) [12]; rate 0.1250 kg/ha) was 0.0, the “Herbicidal rating CYPSE” value (CYPSE (Flatsedge) [12]; rate 0.2500 kg/ha) was 3.0 and the “Herbicidal rating MOOVA” value (MOOVA (Monochoria) [13]; rate 0.0313 kg/ha) was 9.0. For the same compound, the “Herbicidal rating MOOVA” value (MOOVA (Monochoria) [13]; rate 0.0625 kg/ha) was 9.0, the “Herbicidal rating MOOVA” value (MOOVA (Monochoria) [13]; rate 0.1250 kg/ha) was 9.0 and the “Herbicidal rating MOOVA” value (MOOVA (Monochoria) [13]; rate 0.2500 kg/ha) was 9.0. The “Herbicidal rating SAGPY” value ([14]; rate 0.0313 kg/ha) was 0.0, the “Herbicidal rating SAGPY” value ([14]; rate 0.0625 kg/ha) was 0.0 and the “Herbicidal rating SAGPY” value ([14]; rate 0.1250 kg/ha) was 0.0. The “Herbicidal rating SAGPY” value ([14]; rate 0.2500 kg/ha) was 6.0.

From patent US20020137929A1, “1 - (3-heterocyclylphenyl) isothiourea, -isourea, -guanidine and -amidine herbicidal agents” (Intellectual Property Department, BASF Aktiengesellschaft, priority 1998, published 2002)
